The target of this experiment is T1, NgTAL; transaldolase from Neisseria gonorrhoeae (Neisseria gonorrhoeae, UniProt Q5F6E9).
T1 construct: gene tal; recombinant from pET SUMO vector, purified
T1 sequence (Q5F6E9 1-351): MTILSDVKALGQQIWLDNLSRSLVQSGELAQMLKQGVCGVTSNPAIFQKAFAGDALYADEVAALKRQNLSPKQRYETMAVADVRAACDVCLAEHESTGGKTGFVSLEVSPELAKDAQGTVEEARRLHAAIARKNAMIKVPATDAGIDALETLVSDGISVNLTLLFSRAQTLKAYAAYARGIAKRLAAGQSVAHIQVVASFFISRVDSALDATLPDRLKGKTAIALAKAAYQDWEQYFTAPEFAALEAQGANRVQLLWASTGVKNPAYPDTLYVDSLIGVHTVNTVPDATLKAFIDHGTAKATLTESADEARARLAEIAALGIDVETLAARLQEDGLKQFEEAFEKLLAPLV
The experiment is described as follows: coupled enzymatic assay at […] nm, steady-state kinetics. In kind it is biochemical. To be noted: co-substrate D-erythrose-4-phosphate; reducing (1 mM DTT) and non-reducing conditions; varied substrate not named in main text.

Each structure is given as a SMILES string.

In the case of `O=P(O)(O)OC[C@H]1OC(O)(CO)[C@@H](O)[C@@H]1O` (stereo partly drawn) [D-fructose-6-phosphate], the Michaelis constant entry was “monitors the conversion of ketose donor D-fructose-6-phosphate and aldose acceptor D-erythrose-4-phosphate into products”.

Source of the values: article PMC8964421, “Widespread occurrence of covalent lysine–cysteine redox switches in proteins” (Nature Chemical Biology, 2022).
